Inconclusive results and toxic doses are left out. Cut-off read from the data, not from the text of the source: active = T/C of 150% or more; inactive = T/C below 125%.
System: L1210 leukemia ip in BDF1 mice, survival T/C
Test: NCI In Vivo Anticancer Drug Screen. Data for tumor model L1210 Leukemia (intraperitoneal) in B6D2F1 (BDF1) mice
Conditions: endpoint: mean survival time, higher = longer survival
Procedure, shortened: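 Antitumor effect is assessed in tumor-bearing animals. Survival in the compound arm is compared with a vehicle-dosed control arm and expressed as their quotient.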

[1] = dose: 100.0 mg/kg/injection, schedule: Q01DX001 (ip), vehicle: Klucel (hydroxypropylcellulose) (HPC)
[2] = dose: 200.0 mg/kg/injection, schedule: Q01DX001 (ip), vehicle: Klucel (hydroxypropylcellulose) (HPC)
[3] = dose: 400.0 mg/kg/injection, schedule: Q01DX001 (ip), vehicle: Klucel (hydroxypropylcellulose) (HPC)
[4] = dose: 100.0 mg/kg/injection, schedule: Q01DX009 (ip), vehicle: saline with Tween-80
[5] = dose: 200.0 mg/kg/injection, schedule: Q01DX009 (ip), vehicle: saline with Tween-80
[6] = dose: 400.0 mg/kg/injection, schedule: Q01DX009 (ip), vehicle: saline with Tween-80
[7] = dose: 100.0 mg/kg/injection, schedule: Q01DX009 (ip), vehicle: saline
[8] = dose: 100.0 mg/kg/injection, schedule: Q04DX003 (ip), vehicle: saline
[9] = dose: 200.0 mg/kg/injection, schedule: Q01DX009 (ip), vehicle: saline
[10] = dose: 50.0 mg/kg/injection, schedule: Q01DX009 (ip), vehicle: saline with Tween-80
[11] = dose: 100.0 mg/kg/injection, schedule: Q01DX009 (ip), vehicle: Klucel (hydroxypropylcellulose) (HPC)
[12] = dose: 100.0 mg/kg/injection, schedule: Q04DX003 (ip), vehicle: Klucel (hydroxypropylcellulose) (HPC)
[13] = dose: 200.0 mg/kg/injection, schedule: Q01DX009 (ip), vehicle: Klucel (hydroxypropylcellulose) (HPC)
[14] = dose: 200.0 mg/kg/injection, schedule: Q04DX003 (ip), vehicle: Klucel (hydroxypropylcellulose) (HPC)
[15] = dose: 400.0 mg/kg/injection, schedule: Q01DX009 (ip), vehicle: Klucel (hydroxypropylcellulose) (HPC)
[16] = dose: 400.0 mg/kg/injection, schedule: Q04DX003 (ip), vehicle: Klucel (hydroxypropylcellulose) (HPC)

Measured: T/C

c1ccc(C2=NC(c3ccccc3)C(c3ccccc3)N2)cc1 (stereo not given)
inactive: [1] 97 % of control | [2] 94 % of control | [3] 89 % of control

COc1c(C)c(Br)c(OC)c2ccccc12
inactive: [4] 89 % of control | [5] 94 % of control | [6] 94 % of control

COC(=O)Cc1cc(=O)c2ccccc2[nH]1
inactive: dose: 50.0 mg/kg/injection, schedule: Q01DX009 (ip), vehicle: saline 94 % of control | [7] 103 % of control | [8] 96 % of control | [9] 93 % of control | dose: 200.0 mg/kg/injection, schedule: Q04DX003 (ip), vehicle: saline 96 % of control | dose: 400.0 mg/kg/injection, schedule: Q04DX003 (ip), vehicle: saline 91 % of control

CC1=Nc2onc(C)c2N=C(C)C1
inactive: [4] 109 % of control | dose: 100.0 mg/kg/injection, schedule: Q04DX003 (ip), vehicle: saline with Tween-80 100 % of control | [5] 94 % of control | dose: 200.0 mg/kg/injection, schedule: Q04DX003 (ip), vehicle: saline with Tween-80 93 % of control | [6] 96 % of control | dose: 400.0 mg/kg/injection, schedule: Q04DX003 (ip), vehicle: saline with Tween-80 95 % of control

N/C(=N\O)c1ccncc1
inactive: [7] 94 % of control | [9] 96 % of control

BrC(Br)(c1ccccc1)C1OCCO1
inactive: [10] 100 % of control | [4] 106 % of control | [5] 93 % of control

CCC(C)(NC(N)=O)c1ccccc1 (stereo not given)
inactive: dose: 100.0 mg/kg/injection, schedule: Q01DX001 (ip), vehicle: saline 101 % of control | dose: 200.0 mg/kg/injection, schedule: Q01DX001 (ip), vehicle: saline 104 % of control

O=C(O)CC1Sc2ccccc2NC1=O (stereo not given)
inactive: [1] 105 % of control | [2] 94 % of control | [3] 105 % of control

CSc1ccc(NC(=O)c2cccc([N+](=O)[O-])c2C(=O)O)cc1
inactive: dose: 100.0 mg/kg/injection, schedule: Q04DX002 (ip), vehicle: saline 106 % of control | dose: 200.0 mg/kg/injection, schedule: Q04DX002 (ip), vehicle: saline 110 % of control | dose: 400.0 mg/kg/injection, schedule: Q04DX002 (ip), vehicle: saline 106 % of control

N#CC1=C(C#N)C(=O)C(c2ccccc2)=C(c2ccccc2)C1=O
inactive: dose: 5.0 mg/kg/injection, schedule: Q01DX001 (ip), vehicle: saline 97 % of control | dose: 10.0 mg/kg/injection, schedule: Q01DX001 (ip), vehicle: saline 97 % of control | dose: 20.0 mg/kg/injection, schedule: Q01DX001 (ip), vehicle: saline 101 % of control

O=S(=O)(Nc1cccc(C(F)(F)F)c1)c1ccccc1
inactive: [11] 106 % of control | [12] 98 % of control | [13] 107 % of control | [14] 97 % of control | [15] 101 % of control | [16] 95 % of control

O/N=c1\ncn(O)c2nc[nH]c12
inactive: dose: 75.0 mg/kg/injection, schedule: Q01DX001 (ip), vehicle: saline 93 % of control | dose: 150.0 mg/kg/injection, schedule: Q01DX001 (ip), vehicle: saline 103 % of control | dose: 300.0 mg/kg/injection, schedule: Q01DX001 (ip), vehicle: saline 93 % of control | dose: 300.0 mg/kg/injection, schedule: Q01DX009 (ip), vehicle: saline 123 % of control

O=C1CCc2c(Cl)sc(Cl)c21
inactive: [10] 91 % of control | [4] 88 % of control | [5] 96 % of control

CON=C(c1ccc(N(C)C)cc1)c1ccc(N(C)C)cc1
inactive: [1] 104 % of control | [12] 103 % of control | [2] 101 % of control | [14] 100 % of control | [3] 101 % of control | [16] 92 % of control

O=C(Nc1cccc(Cl)c1Cl)N(CCO)C1CCCCC1
inactive: [11] 107 % of control | [13] 96 % of control | [15] 94 % of control

CC(CCOC(=O)c1ccccc1)=C(c1ccccc1)c1ccccc1
inactive: dose: 100.0 mg/kg/injection, schedule: Q04DX002 (ip), vehicle: Klucel (hydroxypropylcellulose) (HPC) 107 % of control | dose: 200.0 mg/kg/injection, schedule: Q04DX002 (ip), vehicle: Klucel (hydroxypropylcellulose) (HPC) 95 % of control | dose: 400.0 mg/kg/injection, schedule: Q04DX002 (ip), vehicle: Klucel (hydroxypropylcellulose) (HPC) 95 % of control

O=c1cc(N=Nc2ccc(O)cc2)[nH]c(=O)[nH]1
inactive: dose: 100.0 mg/kg/injection, schedule: Q01DX009 (ip), vehicle: water 94 % of control | dose: 100.0 mg/kg/injection, schedule: Q04DX003 (ip), vehicle: water 103 % of control | dose: 200.0 mg/kg/injection, schedule: Q01DX009 (ip), vehicle: water 94 % of control | dose: 200.0 mg/kg/injection, schedule: Q04DX003 (ip), vehicle: water 103 % of control | dose: 400.0 mg/kg/injection, schedule: Q01DX009 (ip), vehicle: water 92 % of control | dose: 400.0 mg/kg/injection, schedule: Q04DX003 (ip), vehicle: water 104 % of control

NC(N)=N/N=C/C(Cl)Cl
inactive: dose: 15.0 mg/kg/injection, schedule: Q01DX Z (ip), vehicle: carboxymethylcellulose (CMC) 103 % of control | dose: 25.0 mg/kg/injection, schedule: Q01DX009 (ip), vehicle: saline with Tween-80 100 % of control | dose: 30.0 mg/kg/injection, schedule: Q01DX Z (ip), vehicle: carboxymethylcellulose (CMC) 97 % of control | dose: 30.0 mg/kg/injection, schedule: Q01DX Z (oral), vehicle: carboxymethylcellulose (CMC) 92 % of control | dose: 37.0 mg/kg/injection, schedule: Q01DX Z (oral), vehicle: carboxymethylcellulose (CMC) 113 % of control | [10] 103 % of control | dose: 50.0 mg/kg/injection, schedule: Q04DX003 (ip), vehicle: saline 98 % of control | dose: 60.0 mg/kg/injection, schedule: Q01DX Z (ip), vehicle: carboxymethylcellulose (CMC) 111 % of control | dose: 60.0 mg/kg/injection, schedule: Q01DX Z (oral), vehicle: carboxymethylcellulose (CMC) 121 % of control | dose: 75.0 mg/kg/injection, schedule: Q01DX001 (oral), vehicle: carboxymethylcellulose (CMC) 113 % of control | dose: 75.0 mg/kg/injection, schedule: Q01DX Z (oral), vehicle: carboxymethylcellulose (CMC) 107 % of control | [4] 121 % of control | [8] 102 % of control | dose: 150.0 mg/kg/injection, schedule: Q01DX001 (oral), vehicle: carboxymethylcellulose (CMC) 104 % of control | dose: 300.0 mg/kg/injection, schedule: Q01DX001 (oral), vehicle: carboxymethylcellulose (CMC) 104 % of control | dose: 300.0 mg/kg/injection, schedule: Q01DX Z (oral), vehicle: carboxymethylcellulose (CMC) 113 % of control | dose: 600.0 mg/kg/injection, schedule: Q01DX001 (oral), vehicle: carboxymethylcellulose (CMC) 117 % of control

O=[N+]([O-])c1cccc(C=Nc2ccc(CCC3(CCl)OCCO3)cc2)c1
inactive: dose: 100.0 mg/kg/injection, schedule: Q01DX001 (ip), vehicle: gum acacia 96 % of control | dose: 200.0 mg/kg/injection, schedule: Q01DX001 (ip), vehicle: gum acacia 98 % of control | dose: 400.0 mg/kg/injection, schedule: Q01DX001 (ip), vehicle: gum acacia 98 % of control

Reference: PubChem BioAssay AID248 (DTP/NCI, 2004)
